# Assay results from patent publication US11061016B2, “In vitro model for pathological or physiologic conditions” (HemoShear, LLC, priority 2012, dated 2021).
# Like-named read-outs stand apart in the source and are kept apart here.
# Experiments:
# cytochrome p450 1A/1B = test: Cytochrome p450 activity assay (P450-GLO), 1A/1B
# Method: (§3) Porous membrane segments roughly 2 cm^2 in area were excised and transferred to standard 24-well plates alongside corresponding static cultures. The cells were incubated with 500 μl of hepatocyte media containing substrates from commercially available P450-GLO kits (kits for luminescent cytochrome p450 assays) at the manufacturer-recommended concentrations. After 4 hours, the media was transferred to 96-well plates and assayed for luminescent metabolites to reflect cytochrome p450 activity as per the manufacturer protocol.
# (§4) After 48 hours, on day 7, segments of the porous membrane from the devices containing hepatocytes cultured under controlled hemodynamics that were roughly 2.0 cm^2 in area were excised and transferred to standard 24-well plates and treated with substrates for the Cyp p450 enzymes in parallel to corresponding static cultures treated with the different agents. Cytochrome p450 assays were done on day 7 using commercially available P450-GLO kits. After 4 hours the media was transferred to 96-well plates and assayed for luminescent metabolites to reflect cytochrome p450 activity.
# cytochrome p450 3A = test: Cytochrome p450 activity assay (P450-GLO), 3A; format: in vitro ADME, rat; conditions: controlled hemodynamics; dexamethasone 02.5 μM, 48 hours; DMSO 11.64
# Method: as §3, §4
# primary rat hepatocytes [1] = test: Toxicity to hepatocytes under controlled flow during Cyp induction; conditions: 50 μM dexamethasone, concentration recommended for static cultures
# Method: Cytochrome p450 assays were done on day 7 using commercially available P450-GLO kits. After 4 hours the media was transferred to 96-well plates and assayed for luminescent metabolites to reflect cytochrome p450 activity.
# primary rat hepatocytes [2] = test: Gluconeogenesis assay (AMPLEX RED glucose); format: cell-based; conditions: for Effect (% Change) on glucose levels: insulin 2 nM or glucagon 100 nM; for glucose levels: decreased by (insulin) / increased by (glucagon) / glucose levels: decreased by (insulin) / increased by further (glucagon): insulin 2 nM, glucagon 100 nM; for glucose levels: decreased by (insulin) / increased by further (glucagon): substrate glycerol
# [3] = tested on: endothelial cells and smooth muscle cells; test: Hypertension model gene array analysis; format: cell-based; conditions: healthy and atheroprone conditions
# Method: ANG2 at a concentration of 10 nM (10.46 ng/ml) or a DMSO vehicle control (VEH) was added to the upper volume and RNA was collected for gene array analysis.
# Aldosterone at a concentration of 1 mM or a vehicle control (VEH) was added to the upper volume and RNA was collected for gene array analysis
# [4] = tested on: primary human hepatocytes; conditions: 72 h
# Method: Hepatocytes were then incubated with medium containing 1 mg/ml of MTT reagent (thiazolyl blue tetrazolium bromide) for 1 hour, following which the cells were lysed in DMSO to release the formazan blue dye formed. The solution was transferred to a 96 well plate and the absorbance was read at 595 nm.
# [5] = tested on: primary human hepatocytes; conditions: 1 μM chlorpromazine; controlled hemodynamic conditions relative to static controls
# primary rat hepatocytes [6] = test: miRNA122 assay; format: cell-based; conditions: static conditions; chlorpromazine 1 μM, 4 hours
# Method: The hepatocytes were then washed with PBS and incubated with serum free hepatocyte medium with or without known toxic drug chlorpromazine (CPZ) at two different concentrations (1 μM and 10 μM) for 4 hours. Supernatants from the cells were collected and microRNA extraction was performed using the MIRNEASY serum/plasma kit (a kit for extracting microRNA, Qiagen). The cDNA was prepared by using the MISCRIPTII RT kit (a kit for preparing cDNA, Qiagen) and samples quantified using the MISCRIPT SYBR GREEN PCR kit (a kit for quantifying cDNA, Qiagen), following the manufacturer's instructions.
# The hepatocytes were washed with PBS and immediately incubated with either vehicle (distilled water) or chlorpromazine (1 μM) for 4 hours. The supernatant was collected and miRNA 122 levels were measured as described above.
# primary rat hepatocytes [7] = test: Biliary activity stain (CDFDA), canalicular pattern; format: cell-based; conditions: controlled hemodynamic conditions, 48 hours
# From the text: Samples were then washed with PBS and placed on glass slide for confocal imaging.
# rat hepatocytes = test: RT-PCR of oxidative stress-related and MRP genes; conditions: controlled hemodynamic conditions
# [8] = tested on: endothelial cell/smooth muscle cell co-cultures; test: HDL in hemodynamic environment; format: cell-based; conditions: HDL at 45 μg/ml or 90 μg/ml; hemodynamic shear stress
# Method: An additional component of plasma cholesterol distinct from nLDL or oxLDL is HDL. […] HDL was then added to the upper volume at a concentration of 45-1,000 μg/ml. This broad range reflects the broad range of HDL concentrations that can exist within human patients. HDL concentrations in individuals at risk for vascular disease are generally less than about 300 μg/ml, while HDL concentrations in healthy individuals range from greater than about 300 μg/ml up to about 2,000 μg/ml in healthy exercising patients.
# In additional experiments, endothelial cell/smooth muscle cell co-cultures plated as described above were preconditioned for 16 hours with hemodynamic shear stress. From hours 16-24 the cells were additionally primed with 0.05 ng/ml TNFα and 50 μg/ml of oxLDL (compared to a vehicle control containing 50 μg/ml nLDL) in the upper volume. At 24 hours, 45 μg/ml or 90 μg/ml HDL was added to the media in the upper volume and hemodynamic shear stress was continued for the next 24 hours (hours 24-48).
# endothelial cells [9] = test: oxLDL and TNFα in hemodynamic environment: RT-PCR gene expression; format: cell-based; conditions: atheroprone shear stress, 50 μg/ml oxLDL without or with 0.05 ng/ml TNFα
# Method: To emulate more inflammatory stages of atherosclerosis, it is desirable to combine multiple circulating factors to better emulate the complexity found within human blood vessels. […] The media in the upper volume was then exchanged for media containing 0.05 ng/ml TNFα and 50 μg/ml of oxLDL. Media containing only 50 μg/ml of nLDL was used as a control.
# Following 24 hours of shear stress preconditioning with atheroprotective or atheroprone hemodynamic forces, 50 μg/ml of oxLDL and 0.05 ng/ml of TNFα were added to upper volume (containing the endothelial cells). This concentration of TNFα is similar to plasma concentrations of TNFα observed in patients with cardiovascular disease. In devices not receiving oxLDL, nLDL was added to the upper volume at the same concentration and used as a vehicle control. Shear stress application was continued for an additional 24 hours in the presence of TNF-α and oxLDL (see FIG. 5). Gene expression analysis was performed using RT-PCR.
# [10] = tested on: endothelial cells and smooth muscle cells; test: oxLDL in hemodynamic environment: gene array, gene, protein and cytokine expression; format: cell-based; conditions: for number of genes regulated as compared to cells treated with nLDL: atheroprone, 50 μg/ml oxLDL vs 50 μg/ml nLDL
# Method: Following 16-24 hours of shear stress preconditioning with atheroprotective or atheroprone hemodynamic forces, oxLDL was added to upper volume (containing the endothelial cells) at a concentration of 10-50 μg/ml (FIG. 5). In devices not receiving oxLDL, nLDL was added to the upper volume at the same concentration and used as a vehicle control. This concentration of oxLDL is similar to plasma concentrations of oxLDL observed in patients with cardiovascular disease. Shear stress application was continued for an additional 24 hours in the presence of oxLDL.
# (§1) Five different donor pairs were used to analyze the oxLDL (50 μg/ml) response compared to nLDL (50 μg/ml) within the atheroprone hemodynamic environment in endothelial cells and smooth muscle cells. […] Significant genes were considered using an FDR of 0.01. Gene expression results are reported as the relative expression of the gene as compared to the expression of β-2 microglobulin (B2M). Protein expression results are reported as the relative expression of the protein as compared to the expression of actin. Activity of NFκB was assessed using an adenovirus NFκB-luciferase (Ad-NFκB-luc) reporter infected in ECs and SMCs.
# NFκB = test: NFκB-luciferase reporter (Ad-NFκB-luc); format: cell-based; conditions: smooth muscle cells; oxLDL added to upper volume only
# Method: as §1
# endothelial cells [11] = test: TNFα in hemodynamic environment: gene expression; format: cell-based; conditions: 0.1-1 ng/ml TNFα; atheroprone hemodynamic forces; not seen at same levels in static cultures
# Method: Following 24 hours of shear stress preconditioning with atheroprotective or atheroprone hemodynamic forces, TNFα was added to upper volume (containing the endothelial cells) at a concentration of 0.05-1 ng/ml (see FIG. 5). This concentration of TNFα is similar to plasma concentrations of TNFα observed in patients with cardiovascular disease. Shear stress application was continued for an additional 24 hours in the presence of TNFα.
# [12] = tested on: Endothelial/smooth muscle cell co-cultures; test: Coculture thrombosis assay with shear stress, Protocol A (fibrin deposition); format: cell-based, Human; conditions: atheroprone hemodynamics vs static cultures
# Method: (§2) Human endothelial cells were co-cultured with or without smooth muscle cells in the presence or absence of human-derived, region-specific hemodynamics. Endothelial cells were exposed to TNFα at various concentrations and incubated in human, platelet-free plasma supplemented by ALEXA FLUOR 488 (A488, a fluorescent dye)-labeled fibrinogen. Conversion of A488-fibrinogen to A488-fibrin and deposition on the endothelium was quantified by confocal microscopy.
# Following 24 hours of shear stress application (atheroprone or atheroprotective), the media was supplemented with TNFα at a concentration of 0.05 ng/mL or 0.10 ng/mL and shear stress was continued for an additional 24 hours, as shown in FIG. 3A. Media was then removed from both the upper and lower chambers, and both the endothelial cells and smooth muscle cells are washed twice with PBS. Endothelial cells were then incubated for 15 minutes at 37° C. with PFP supplemented with 37.5 μg/mL ALEXA-488 human fibrinogen, 20 μg/mL corn trypsin inhibitor, and 10 mM calcium, and fixed and imaged as described above for monocultures.
# [13] = tested on: endothelial and smooth muscle cells; test: Expression of genes relevant to thrombosis; format: cell-based, Human; conditions: TNFα stimulation; both endothelial and smooth muscle cells
# Method: as §2
# FIG. 2B depicts a heat map of relative gene expression in endothelial and smooth muscle cells (grown under atheroprone or atheroprotective conditions; see FIG. 2A) of several genes relevant to thrombosis. The relative changes in gene expression of Tissue Factor (F3) and Thrombomodulin (THBD) are presented below the heat map. Atheroprone hemodynamics up-regulate Tissue Factor (F3) compared to atheroprotective shear stress. […] In addition, TNFα stimulation reduces Tissue Factor Pathway Inhibitor (TFPI) in both endothelial and smooth muscle cells.
# [14] = No substrate, 4 hours, controlled hemodynamics
# [15] = substrate Glycerol (2 mM), 4 hours
# [16] = substrate Lactate/Pyruvate (20 mM/2 mM), 4 hours
# [17] = substrates lactate and pyruvate
# [18] = atheroprone hemodynamic environment
molecule,measurement,setting,value
"Cc1ccc2cc3c(ccc4ccccc43)c3c2c1CC3 [3-MC, 3-Methyl Cholanthrene]",induction responses seen at lower levels under controlled hemodynamics,cytochrome p450 1A/1B; controlled hemodynamics (0.1 μM) vs static (1 μM),10 fold
same,1A/1B response (cytochrome p450 activity normalized to ATP content),"cytochrome p450 1A/1B; controlled hemodynamics, 3-MC 0.1 μM, 48 hours, DMSO 4.87",133.06
"C[C@@H]1C[C@H]2[C@@H]3CCC4=CC(=O)C=C[C@]4(C)[C@@]3(F)[C@@H](O)C[C@]2(C)[C@@]1(O)C(=O)CO [Dexamethasone, dexamethasone]",3A response (cytochrome p450 activity normalized to ATP content),cytochrome p450 3A,57.53
same,toxicity in the controlled flow system,primary rat hepatocytes [1],toxic
"OCC(O)CO [Glycerol, glycerol]",change in glucose produced with substrate alone,"primary rat hepatocytes [2]; Glycerol 2 mM, no hormone, 4 hours",Glycerol (+67%)
same,glucose produced by the hepatocytes increased by,primary rat hepatocytes [2]; substrate glycerol (2 mM) alone,67%
C[C@]12CCC(=O)C=C1CC[C@@H]1[C@@H]2[C@@H](O)C[C@]2(C=O)[C@@H](C(=O)CO)CC[C@@H]12 [aldosterone],inflammatory genes (gene array),[3]; Aldosterone 1 mM vs vehicle,upregulated
CN(C)CCCN1c2ccccc2Sc2ccc(Cl)cc21 [chlorpromazine],toxicity,[4]; 1 μM,30.3%
same,toxicity,[4]; 10 μM,46.4%
same,upregulation of APEX nuclease gene,[5],2.8 fold
same,upregulation of glutathione reductase (GSR) gene,[5],8.3 fold
same,upregulation of sorbitol dehydrogenase (SORD) gene,[5],6.9 fold
same,upregulation of thioredoxin reductase 1 (TXNRD1) gene,[5],5.5 fold
same,miRNA 122 levels in the supernatants compared to vehicle controls,primary rat hepatocytes [6],did not cause any change
Cc1c(C)c2c(c(C)c1O)CCC(C)(COc1ccc(CC3SC(=O)NC3=O)cc1)O2 (stereo not shown) [troglitazone],changes in the canalicular pattern (cholestatic changes),primary rat hepatocytes [7]; troglitazone 4 uM,visibly dilated canalicular structures
same,changes in the canalicular pattern (cholestatic changes),primary rat hepatocytes [7]; troglitazone 40 uM,much more prominent and extensive
same,oxidative stress-related genes and MRP3 and MRP4 genes,rat hepatocytes,upregulation
"Angiotensin II (DRVYIHPF; Angiotensin-2; UniProt P01019 25-32, looked up) [ANG2]",inflammatory genes (gene array),[3]; ANG2 10 nM (10.46 ng/ml) vs DMSO vehicle,upregulated
glucagon,Effect (% Change) on glucose levels,primary rat hepatocytes [2]; [14],+51%
same,glucose levels: decreased by (insulin) / increased by (glucagon),primary rat hepatocytes [2]; absence of a substrate,51%
same,Effect (% Change) on glucose levels,primary rat hepatocytes [2]; [15],+15%
same,Effect (% Change) on glucose levels,primary rat hepatocytes [2]; [16],+80%
same,glucose levels: decreased by (insulin) / increased by further (glucagon),primary rat hepatocytes [2],15%
same,glucose levels: decreased by (insulin) / increased by (glucagon),primary rat hepatocytes [2]; [17],80%
high-density lipoprotein [HDL],atheroprotective and pro-inflammatory gene and protein activation,[8],activates many atheroprotective genes while blocking activation of pro-inflammatory genes and proteins
insulin,Effect (% Change) on glucose levels,primary rat hepatocytes [2]; [14],−27%
same,glucose levels: decreased by (insulin) / increased by (glucagon),primary rat hepatocytes [2]; absence of a substrate,27%
same,Effect (% Change) on glucose levels,primary rat hepatocytes [2]; [15],−38%
same,Effect (% Change) on glucose levels,primary rat hepatocytes [2]; [16],−25%
same,glucose levels: decreased by (insulin) / increased by further (glucagon),primary rat hepatocytes [2],38%
same,glucose levels: decreased by (insulin) / increased by (glucagon),primary rat hepatocytes [2]; [17],25%
oxidized low-density lipoprotein [oxLDL],eNOS gene expression (NOS3),endothelial cells [9],reduced
same,E-Selectin (SELE) gene expression,endothelial cells [9]; control nLDL,higher levels
same,atheroprotective signaling (eNOS and KLF2) gene expression,[10]; atheroprone conditions,reduced
same,inflammatory genes IL8 and E-Selectin (SELE) expression,"[10]; atheroprone conditions, not regulated in traditional static cultures",activate
same,"levels of secreted cytokines (IL6, IL8, MCP-1)",[10]; [18],increased
same,phosphorylation of atheroprotective eNOS signaling,[10]; [18],reduced
same,number of genes regulated as compared to cells treated with nLDL,"[10]; endothelial cells, 5 donors",688 genes
same,number of genes regulated as compared to cells treated with nLDL,"[10]; smooth muscle cells, 4 donors",304 genes
same,NFκB signaling (luciferase reporter),NFκB,elevated
tumor necrosis factor-α [TNFα],"inflammatory response (expression of E-Selectin, ICAM, VCAM, IL8)",endothelial cells [11],induced an inflammatory response
same,lower levels of TNFα to induce fibrin deposition as compared to static cultures,[12],100- to 200 fold
same,Tissue Factor Pathway Inhibitor (TFPI) expression,[13],reduces
